# Measured values taken from patent publication US9784730B2, “Nanoparticle for targeting brain tumors and delivery of O6-benzylguanine” (University of Washington through its Center for …, priority 2013, dated 2017).
# Columns and labels:
# [1] = clinical trials, BG included in TMZ regimens; cited from earlier work
# SF767 cells = experiment: Clonogenic survival assay with TMZ; format: cell-based, human
# Experimental: SF767 cells are noted for their pronounced resistance to TMZ (LD50 about 600 μM) mediated in large part by MGMT. The effect of suppression of MGMT activity by NPCP-BG on TMZ-mediated reduction in clonogenic survival of SF767 is illustrated in FIG. 6. Cells were exposed to NPCP-BG equivalent to 20 μM free drug for 2 hr followed by incubation with TMZ for 24 hr in the presence of inhibitor. Controls were treated either with 20 μM free BG or with an equivalent volume of DMSO.
# Determination of proliferative survival of SF767 by clonogenic assay was performed as described previously (Blank et al., DNA Repair 2004, 3, 629-638). Briefly, 6-well plates inoculated with 2 mL of supplemented medium containing 1000 to 2000 cells were incubated overnight at 37° C. in 95%/5% air/CO2 to allow reattachment and resumption of proliferation. Cells were then incubated for 2 hrs with inhibitor-conjugated NP equivalent to 20 μM free BG prior to exposure to TMZ. Incubation was continued for 22 hr before changing cells to fresh, drug-free medium to allow formation of colonies ≧50 cells. […] Cytotoxicity was quantitated by linear regression analysis of plots of log surviving fraction v. […] Survival was determined in 4 separate experiments in which every dose was assayed in duplicate (i.e., 8 determinations per TMZ dose) in order to achieve statistical significance.
# [2] = target: T1, O6-methylguanine-DNA methyltransferase (MGMT) (Homo sapiens, UniProt P16455); experiment: MGMT activity assay in treated SF767 cells; format: cell-based; conditions: 20 μM free BG, 2 hr
# T1 construct: MGMT activity determined in cleared supernatants of whole cell homogenates; endogenous in cells; host or cells: SF767 human GBM cell line (ATCC)
# T1 sequence (P16455 1-207): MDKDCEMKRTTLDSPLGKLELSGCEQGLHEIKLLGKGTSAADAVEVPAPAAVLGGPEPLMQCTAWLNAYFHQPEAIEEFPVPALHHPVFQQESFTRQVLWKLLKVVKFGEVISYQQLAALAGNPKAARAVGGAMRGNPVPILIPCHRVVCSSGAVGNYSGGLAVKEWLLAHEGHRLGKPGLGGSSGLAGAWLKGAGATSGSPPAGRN
# Experimental: In this experiment, MGMT activity was assayed in untreated cells, cells incubated with 20 μM free BG for 2 hr, and cells treated for either 2 hr or 24 hr with NPCP-BG equivalent to 5 μM, 10 μM or 20 μM BG. […] All treatment conditions were normalized as a percent MGMT activity of untreated SF767 cells.
# The MGMT activities of protein extracts of human GBM SF767 cells were measured in a standard biochemical assay that quantifies the transfer of radioactivity from a DNA substrate containing [methyl^3H]O^6-methylguanine (specific activity, 80 Ci/mmol) to protein, as detailed previously (Silber et al., Cancer Res 1998, 58, 1068-1073). 2×10^6 SF767 cells were plated in 100 mm treated dishes and incubated with 20 μM free BG for and 2 hr or 24 hr with NPCP-BG equivalent to 5 μM, 10 μM or 20 μM BG in fully supplemented media. After incubation, cells were washed with PBS and collected and protein extracts were prepared. The protein extract supernatant was prepared by dissolution of washed SF767 pellets of known cell number with non-ionic detergents in the presence of 600 mM NaCl. Aliquots of crude homogenate were saved for DNA determination by the diphenylamine method that measures deoxyribose following degradation of DNA with heat and acid. Crude homogenate was cleared by centrifugation at 10,000×g for 30 min. […]
# [3] = rodent models; cited from earlier work
# brain tumors = conditions: cited from earlier work
compound,measurement,setting,value
"Nc1nc(OCc2ccccc2)c2nc[nH]c2n1 [BG, O^6-benzylguanine]",Reduction of maximum tolerated dose (MTD) of TMZ,[1],50%
same,TMZ LD50 in presence of MGMT inhibitor,SF767 cells; inhibitor equivalent to 20 μM BG for 2 hr before TMZ for 24 hr,about 15 μM
same,Fold reduction of MGMT activity,[2],about 28 fold
same,MGMT activity as percent of untreated activity,[2],about 3.6%
same,Half-life reported in literature,[3],1.2 h
chlorotoxin [CTX],Brain tumors targeted of those examined,brain tumors,74 out of 79
"Cn1nnc2c(C(N)=O)ncn2c1=O [TMZ, temozolomide]",TMZ LD50 (dose reducing clonogenic survival to 50%),SF767 cells; TMZ alone,about 600 μM
